Laboratory results taken from US8071600B2, “Derivatives of 4-piperazin-1-yl-4-benzo[B]thiophene suitable for the treatment of CNS disorders” (Otsuka Pharmaceutical Co., Ltd., priority 2005, dated 2011).
Counter-ions that a name gives are not always drawn.

Compound | melting point
CN1CNc2ccc(OCCCN3CCN(c4cccc5sccc45)CC3)cc2C1.Cl | 203.1 to 204.4 °C
COc1cc(NC=O)cc(C)c1OCCCN1CCN(c2cccc3sccc23)CC1.Cl | 247.5 to 253 °C (dec.)
Cl.c1cc(N2CCN(CCCOc3ccc4c(c3)NCCO4)CC2)c2ccsc2c1 | 207.9 to 208.8 °C
CN1CCOc2cc(OCCCN3CCN(c4cccc5sccc45)CC3)ccc21.Cl | 248.1 to 249.6 °C
CC(=O)N1CCC(OCCCN2CCN(c3cccc4sccc34)CC2)CC1.Cl | 208 to 210 °C
CCS(=O)(=O)Nc1cc(C)c(OCCCN2CCN(c3cccc4sccc34)CC2)c(OC)c1.Cl | 235.5 to 237.5 °C
CN(C)C(=O)Nc1cc(OCCCCN2CCN(c3cccc4sccc34)CC2)n(C)n1.Cl | 186 to 187.5 °C
CCNC(=O)c1ccc(OCCCN2CCN(c3cccc4sccc34)CC2)nc1 (as salt: hydrochloride) [Example 26] | 201.5 to 207.5 °C
CCNC(=O)c1ccnc(OCCCN2CCN(c3cccc4sccc34)CC2)c1 (as salt: hydrochloride) [Example 32] | 140 to 141.5 °C
Cc1ccc(OCCCN2CCN(c3cccc4sccc34)CC2)cn1 (as salt: hydrochloride) [Example 40] | 234 to 236 °C
CNC(=O)c1cc(OCCCN2CCN(c3cccc4sccc34)CC2)ncn1 (as salt: hydrochloride) [Example 58] | 205 to 209.5 °C
CCNC(=O)c1cc(OCCCN2CCN(c3cccc4sccc34)CC2)n(C)n1 (as salt: hydrochloride) [Example 62] | 210.5 to 214.5 °C
CCNC(=O)c1cc(OCCCN2CCN(c3cccc4sccc34)CC2)no1 (as salt: hydrochloride) [Example 72] | 219.5 to 222.5 °C (dec.)
CCNC(=O)c1csc(OCCCN2CCN(c3cccc4sccc34)CC2)n1 (as salt: hydrochloride) [Example 73] | 151 to 153.5 °C
c1cc(N2CCN(CCCCOc3ccncc3)CC2)c2ccsc2c1 (as salt: hydrochloride) [Example 80] | 183 to 185 °C
Cn1cnc2ccc(OCCCN3CCN(c4cccc5sccc45)CC3)cc2c1=O (as salt: hydrochloride) [Example 95] | 252.9 to 254.3 °C
O=C1Cc2ccc(OCCCCN3CCN(c4cccc5sccc45)CC3)cc2N1 (as salt: hydrochloride) [Example 127] | 215 to 217 °C
O=C1Nc2cc(OCCCCN3CCN(c4cccc5sccc45)CC3)ccc2CO1 (as salt: hydrochloride) [Example 133] | 253 to 258 °C (dec.)
CCN(CC)CCNC(=O)c1ccc(OCCCN2CCN(c3cccc4sccc34)CC2)cc1 (as salt: hydrochloride) [Example 160] | 229.5 to 232.5 °C
CNC(=O)c1ccc(OC)c(OCCCN2CCN(c3cccc4sccc34)CC2)c1 (as salt: hydrochloride) [Example 281] | 163.5 to 165 °C
CCNCc1ccc(OCCCN2CCN(c3cccc4sccc34)CC2)cc1 (as salt: hydrochloride) [Example 286] | 228 to 241 °C (dec.)
CN(C)Cc1ccc(OCCCN2CCN(c3cccc4sccc34)CC2)c(Cl)c1 (as salt: hydrochloride) [Example 303] | 259 °C (dec.)
CCN(C)Cc1ccc(OCCCN2CCN(c3cccc4sccc34)CC2)c(C)c1 (as salt: hydrochloride) [Example 307] | 256.5 °C (dec.)
CN1CCN(Cc2ccc(OCCCN3CCN(c4cccc5sccc45)CC3)cc2)CC1 (as salt: hydrochloride) [Example 314] | 261.5 °C (dec.)

Compound | melting point
CC(=O)Nc1ccc(OCCCN2CCN(c3cccc4sccc34)CC2)cc1 (as salt: hydrochloride) [Example 343] | 283 to 285 °C
CCS(=O)(=O)Nc1ccc(OCCCN2CCN(c3cccc4sccc34)CC2)cc1 (as salt: hydrochloride) [Example 345] | 174 to 176 °C
COc1cc(NC=O)cc(C)c1OCCCN1CCN(c2cccc3sccc23)CC1 (as salt: hydrochloride) [Example 354] | 247.5 to 253 °C (dec.)
COc1cc(N2CCOC2=O)cc(C)c1OCCCN1CCN(c2cccc3sccc23)CC1 (as salt: hydrochloride) [Example 358] | 247.5 to 251 °C (dec.)
COc1cc(N2CCCC2=O)cc(CO)c1OCCCN1CCN(c2cccc3sccc23)CC1 (as salt: hydrochloride) [Example 359] | 144 to 145 °C
CCN(CC)CCc1ccc(OCCCN2CCN(c3cccc4sccc34)CC2)cc1 (as salt: hydrochloride) [Example 368] | 224 to 232 °C (dec.)
CN(C)CCc1ccc(OCCCN2CCN(c3cccc4sccc34)CC2)cc1 (as salt: hydrochloride) [Example 382] | 238.5 °C (dec.)
COc1cc(NC(=O)CN)cc(C)c1OCCCN1CCN(c2cccc3sccc23)CC1 (as salt: hydrochloride) [Example 1060] | 268 °C (dec.)
COc1cc(N2CCOC2=O)cc(CO)c1OCCCN1CCN(c2cccc3sccc23)CC1 (as salt: hydrochloride) [Example 1071] | 224 to 226.5 °C (dec.)
COc1cc(N2CCCC2)cc(C)c1OCCCN1CCN(c2cccc3sccc23)CC1 (as salt: hydrochloride) [Example 1076] | 246.5 to 249 °C (dec.)
COc1cc(N2CCN(C(C)=O)CC2=O)cc(C)c1OCCCN1CCN(c2cccc3sccc23)CC1 (as salt: hydrochloride) [Example 1079] | 218 to 221.5 °C
COC(=O)N1CCN(c2cc(C)c(OCCCN3CCN(c4cccc5sccc45)CC3)c(OC)c2)C(=O)C1 (as salt: hydrochloride) [Example 1080] | 223 to 228 °C
COc1cc(N2CCN(C(C)=O)CC2)cc(C)c1OCCCN1CCN(c2cccc3sccc23)CC1 (as salt: hydrochloride) [Example 1083] | 257 to 261 °C (dec.)
COc1cc(N2CCN(C(C)=O)CC2)cc(CO)c1OCCCN1CCN(c2cccc3sccc23)CC1 (as salt: hydrochloride) [Example 1084] | 217.5 to 221 °C
COC(=O)N1CCN(c2cc(C=O)c(OCCCN3CCN(c4cccc5sccc45)CC3)c(OC)c2)CC1 (as salt: hydrochloride) [Example 1086] | 225 °C (dec.)
COc1cc(N2CCCCC2)cc(C)c1OCCCN1CCN(c2cccc3sccc23)CC1 (as salt: hydrochloride) [Example 1089] | 248 to 251 °C (dec.)
CN(C)C(=O)N1CCC(OCCCN2CCN(c3cccc4sccc34)CC2)CC1 (as salt: hydrochloride) [Example 1110] | 202 to 205 °C
CN(C)C(=O)c1csc(OCCCN2CCN(c3cccc4sccc34)CC2)n1 (as salt: hydrochloride) [Example 1113] | 178 to 182 °C
CN(C)c1cc(OCCCCN2CCN(c3cccc4sccc34)CC2)n(C)n1 (as salt: hydrochloride) [Example 1138] | 156.5 to 158.5 °C
COC(=O)c1cc(OCCCN2CCN(c3cccc4sccc34)CC2)n(C)n1 [Example 1, methyl 5-[3-(4-benzo[b]thiophen-4-yl-piperazin-1-yl)propoxy]-1-methyl-1H-pyrazole-3-carboxylate] | 109 to 110.5 °C
Cn1nc(C(=O)O)cc1OCCCN1CCN(c2cccc3sccc23)CC1 [Example 2, 5-[3-(4-benzo[b]thiophen-4-yl-piperazin-1-yl)propoxy]-1-methyl-1H-pyrazole-3-carboxylic acid] | 114.5 to 118 °C
COc1cc(N)cc(C)c1OCCCN1CCN(c2cccc3sccc23)CC1 [Example 9, 4-[3-(4-benzo[b]thiophen-4-yl-piperazin-1-yl)-propoxy]-3-methoxy-5-methylaniline] | 155 to 158 °C
C=CCn1nc(C(=O)NC)cc1OCCCN1CCN(c2cccc3sccc23)CC1 [Example 3098, 1-allyl-5-[3-(4-benzo[b]thiophen-4-yl-piperazin-1-yl)propoxy]-1H-pyrazole-3-carboxylic acid methylamide] | 138.5 to 140.5 °C
